According to BindingDB's records for doi:10.1016/j.bioorg.2015.04.006 (Ataturk University, 2015):

These molecules were tested against Acetylcholinesterase (Homo sapiens, UniProt P22303) (assay: Acetylcholinesterase Inhibition Assay). Conditions: pH 8.
Protocol: AChI and 5,5'-dithio-bis(2-nitro-benzoic)acid (DTNB) were used as substrate for this enzymatic reaction. […] Then 50 µL of DTNB (0.5 mM) was transferred. Then the reaction was initiated by the addition of 50 µL of AChI. The hydrolysis of AChI was recorded spectrophotometrically by the formation of yellow 5-thio-2-nitrobenzoate anion as the result of the reaction of DTNB with thiocholine at a wavelength of 412 nm.

Chain of Acetylcholinesterase (P22303 whole entry): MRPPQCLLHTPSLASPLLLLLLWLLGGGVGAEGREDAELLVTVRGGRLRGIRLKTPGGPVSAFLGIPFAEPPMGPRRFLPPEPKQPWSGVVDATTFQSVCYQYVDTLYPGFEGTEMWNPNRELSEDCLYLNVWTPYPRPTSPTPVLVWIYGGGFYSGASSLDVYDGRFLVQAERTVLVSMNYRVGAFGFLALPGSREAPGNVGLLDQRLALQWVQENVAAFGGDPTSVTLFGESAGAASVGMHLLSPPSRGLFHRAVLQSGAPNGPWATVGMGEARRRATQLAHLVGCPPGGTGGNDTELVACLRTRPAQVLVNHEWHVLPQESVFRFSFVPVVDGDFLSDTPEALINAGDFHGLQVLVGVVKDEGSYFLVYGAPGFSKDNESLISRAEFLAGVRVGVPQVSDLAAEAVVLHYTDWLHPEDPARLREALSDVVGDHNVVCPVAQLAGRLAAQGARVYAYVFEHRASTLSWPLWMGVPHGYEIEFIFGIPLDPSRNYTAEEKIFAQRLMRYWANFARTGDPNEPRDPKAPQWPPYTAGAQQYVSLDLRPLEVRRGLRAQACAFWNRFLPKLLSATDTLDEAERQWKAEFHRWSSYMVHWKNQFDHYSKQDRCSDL

SMILES	IC50 [nM]	Ki [nM]
O=C(c1ccc(O)cc1)c1cc(Br)c(O)cc1O [(5-Bromo-2,4-dihydroxyphenyl)(4-hydroxyphenyl)methanone (24)]	4.81	5.72
COc1ccc(OC)c(Br)c1 [2-bromo-1,4-dimethoxybenzene (14)]	7.21	4.25
O=C(c1ccc(O)cc1Br)c1cccc(O)c1O [(2-Bromo-4-hydroxyphenyl)(2,3-dihydroxyphenyl)methanone (21)]	4.84	3.75
COc1ccc(C(=O)c2cc(Br)c(OC)cc2OC)cc1 [(5-bromo-2,4-dimethoxyphenyl)(4-methoxyphenyl)methanone (19)]	4.05	3.65
O=C(c1ccc(O)cc1)c1cc(O)c(Br)cc1O [(4-Bromo-2,5-dihydroxyphenyl)(4-hydroxyphenyl)methanone (22)]	4.58	2.78
COc1cc(C(=O)c2ccccc2)c(OC)cc1Br [(4-Bromo-2,5-dimethoxyphenyl)(phenyl)methanone (16)]	4.68	5.28
O=C(c1ccccc1)c1cc(O)c(Br)cc1O [(4-Bromo-2,5-dihydroxyphenyl)(phenyl)methanone (23)]	4.88	3.24
COc1ccc(C(=O)c2cc(OC)c(Br)cc2OC)cc1 [(4-Bromo-2,5-dimethoxyphenyl)(4-methoxyphenyl)methanone (15)]	4.22	3.77
COc1ccc(C(=O)c2ccc(OC)c(OC)c2)c(Br)c1 [(2-bromo-4-methoxyphenyl)(3,4-dimethoxyphenyl)methanone (10)]	4.41	3.53
COc1ccc(C(=O)c2cccc(OC)c2OC)c(Br)c1 [(2-Bromo-4-methoxyphenyl)(2,3-dimethoxyphenyl)methanone (11)]	4.2	4.34
COc1ccc(C(=O)c2ccc(OC)cc2OC)cc1 [(2,4-dimethoxyphenyl)(4-methoxyphenyl)methanone (18)]	5.25	5.88
O=C(c1ccc(O)c(O)c1)c1ccc(O)cc1Br [(2-bromo-4-hydroxyphenyl)(3,4-dihydroxyphenyl)methanone (20)]	4.71	4.06
